Where two headings read alike, the source gives them in different places. Where a SMILES comes first, the peptide text is derived from it. [ ]: non-standard residue; d: D form. The star is where a group is joined. ξ: configuration not given here. X1 = CC(=O)NC1C(O)[C@H](O)C(CO)O[C@H]1O[C@@H]1C(CO)O[C@@H](N*)C(NC(C)=O)C1O; Orn(CH(NH2)2) = NC(N)NCCC[C@H](N)C(=O)O; Ile(3ξ) = CCC(C)[C@H](N)C(=O)O; Thr(3ξ) = CC(O)[C@H](N)C(=O)O
How the values were obtained:
BnAb PG9 = type: binding, human
Method: V1V2 glycopeptide binding Kd and rate constant measurements were carried out on a BIAcore 3000 instrument using an anti-human Ig Fc capture assay as described earlier (Alam, S. M.; McAdams, M.; Boren, D.; Rak, M.; Scearce, R. M.; Gao, F.; Camacho, Z. T.; Gewirth, D.; Kelsoe, G.; Chen, P.; Haynes, B. F. J. Immunol. 2007, 178, 4424-4435.). Anti-human IgG Fc antibody (Sigma Chemicals) was immobilized on a CM5 sensor chip to about 10000 response units (RU), and each antibody was captured to about 300 RU. Anti-RSV Synagis mAb was captured on the same sensor chip as a control surface. Non-specific binding and drift in signal was double referenced by subtracting binding to the control surface and blank buffer flow for each of the peptide binding interactions. All curve-fitting analyses were performed using global fit of multiple titrations to the 1:1 Langmuir model. All data analysis was performed using the BIAevaluation 4.1 analysis software (GE Healthcare).

BnAb CH01 = assay: SPR binding of V1V2 peptides/glycopeptides to captured mAb CH01; design: species or system human
V2 mAb CH58 = assay: SPR binding of V1V2 peptides/glycopeptides to captured V2 mAb CH58; design: species or system human; conditions: Example 6; peptide solubilized/oxidized in DMSO, 1-50 μg/mL
V2 mAb CH59 = assay: SPR binding of V1V2 peptides to captured V2 mAb CH59; design: species or system human; conditions: Example 6; peptide oxidized by solubilization in DMSO, 50 ug/mL
Description: FIGS. 42A-42D. Selective binding of V1V2 BnAbs to mannose derivatized V1V2 glycopeptides but not to aglycone or GlcNAc2 V1V2 peptides. SPR curves showing preferential binding of PG9 and CH01 BnAbs to Man5—(FIG. 42A) and Man3—(FIG. 42B) GlcNAc2 V1V2 glycopeptides but not to GlcNAc2 (FIG. 42C) and aglycone (FIG. 42D) peptides. By contrast, V2 mAbs CH58 and CH59 bound to both aglycone ([…]) and GlcNAc2 (FIG. 42D) V1V2 peptides. Each V1V2 peptide was oxidized by solubilization in DMSO and injected over the indicated MAb at 50 ug/mL. Data shown is after reference subtraction of non-specific signal measured over the control mAb (Synagis). Binding data are representative of at least three experiments for Man5 and Man3 V1V2 peptides and two experiments for GlcNAc2 and aglycone V1V2.
V1V2 glycopeptide binding Kd and rate constant measurements were carried out on BIAcore 3000 instruments as described earlier (Alam et al, Immunol. 178(7):4424-4435 (2007), Alam et al, J. Virol. 82(1):115-125 (2008)). Anti-human IgG Fc antibody (Sigma Chemicals) was immobilized on either a CM3 or CM5 (CM3 for kinetics and Kd determination) sensor chip (to minimize non-specific binding of peptides to chip matrix) to about 5000 Resonance Unit (RU) and each antibody was captured to about 100-200 RU on individual flow cells, in addition to one flow cell with the control Synagis mAb on the same sensor chip. […]

PG9 UCA = assay: SPR binding to unmutated ancestor of PG9; design: species or system human
Method: (§1) Only the V1/V2 mAb CH58 bound to the glycan-deficient (aglycone) peptide (FIG. 9A). V1/V2 bNAbs ([…], CH01) bound weakly to V1/V2 GlcNAc2 peptide (FIG. 9B). In contrast, both bNAbs PG9 and CH01 bound avidly to the glycopeptides, V1/V2 Man3GlcNAc2 and V1/V2 Man5GlcNAc2 (FIGS. 9C and 9D). CH58 bound weakly to both glycopeptides. Each of the mAbs was captured on a human Fc specific IgG directly immobilized on a BIAcore CM5 sensor chip. Each of the V1/V2 peptides (3 min at 50 uL/min) was injected over the mAb captured surface and SPR binding was monitored on a BIAcore 3000 instrument. Non-specific binding of peptides was subtracted following measurement of signal on a surface with a control ant-RSV mab Synagis.
(§2) The binding Kd (disassociation constant) of the UAs ranges from about 0.15 to 0.2 μM.
(§3) V1V2 glycopeptide binding Kd and rate constant measurements were carried out on BIAcore 3000 instruments as described earlier (Alam et al, Immunol. 178(7):4424-4435 (2007), Alam et al, J. Virol. 82(1):115-125 (2008)). Anti-human IgG Fc antibody (Sigma Chemicals) was immobilized on either a CM3 or CM5 (CM3 for kinetics and Kd determination) sensor chip (to minimize non-specific binding of peptides to chip matrix) to about 5000 Resonance Unit (RU) and each antibody was captured to about 100-200 RU on individual flow cells, in addition to one flow cell with the control Synagis mAb on the same sensor chip. Non-specific binding of V1V2 glycopeptide was double-referenced by substracting the control surface and blank buffer flow for each mAb-V1V2 glycopeptide binding interaction. […] SPR curve fitting analysis was performed using global fit of multiple titrations to the 1:1 Langmuir model. All data analysis was performed using the BIAevaluation 4.1 analysis software (GE Healthcare).

CH01 UCA = assay: SPR binding to unmutated ancestor of CH01; design: species or system human
Method: as §1, §2, §3

CH58 UCA = assay: SPR binding to unmutated ancestor of CH58; design: species or system human; conditions: Example 1
Method: as §1, §3

[1] = Circular dichroism analysis of V1V2 peptides; type: physicochemical; conditions: dimerized in 20% DMSO-phosphate buffer about 20 h
Method: Circular dichroism (CD) spectra of V1/V2 peptides were measured on an Aviv model 202 spectropolarimeter using a 1 mm path length quartz cuvette. The 20% DMSO-treated peptides were dialyzed against 20 mM phosphate buffer, pH 7.0 to remove DMSO using a dialysis cassette of MW cut-off 3500 Da. The CD spectra of peptides (at 100 200 μg/ml concentration) in phosphate buffer (pH 7.4) were recorded at 25° C. Three scans of the CD spectra of each peptide were averaged and the CD signal from phosphate buffer was subtracted out.

[2] = biological target: Man3GlcNAc2 V1V2 glycopeptide, DMSO-oxidized disulfide-linked dimer (HIV-1 strain AE.CM244 (A244)); assay: SPR kinetics, mAb captured on anti-IgG, DMSO-oxidized dimer injected; 1:1 Langmuir
[3] = biological target: Man5GlcNAc2 V1V2 glycopeptide, DMSO-oxidized disulfide-linked dimer (HIV-1 strain AE.CM244 (A244)); assay: as above
[4] = Example 6, peptide solubilized/oxidized in DMSO, 50 μg/mL

## CC(=O)N[C@H]1[C@H](O[C@H]2[C@H](O)[C@@H](NC(C)=O)C(O)O[C@@H]2CO)O[C@H](CO)[C@@H](O[C@@H]2O[C@H](CO[C@H]3O[C@H](CO[C@H]4O[C@H](CO)[C@@H](O)[C@H](O)[C@@H]4O)[C@@H](O)[C@H](O[C@H]4O[C@H](CO)[C@@H](O)[C@H](O)[C@@H]4O)[C@@H]3O)[C@@H](O)[C@H](O[C@H]3O[C@H](CO)[C@@H](O)[C@H](O)[C@@H]3O)[C@@H]2O)[C@@H]1O (stereo partly drawn) [Man5GlcNAc2 glycan alone, reference compound]
BnAb PG9; Example 5, peptides 200 μg/mL, glycans 25 μg/mL over captured PG9
  SPR binding to PG9: not detected

## CCC(C)[C@H](NC(=O)[C@@H]1CCCN1C(=O)[C@@H](NC(=O)[C@@H](NC(=O)[C@H](CC(=O)O)NC(=O)[C@H](CC(C)C)NC(=O)[C@H](CCCCN)NC(=O)[C@H](Cc1ccc(O)cc1)NC(=O)[C@H](Cc1ccccc1)NC(=O)[C@H](CC(C)C)NC(=O)[C@H](C)NC(=O)[C@H](Cc1cnc[nH]1)NC(=O)[C@@H](NC(=O)[C@H](CCCCN)NC(=O)[C@H](CCC(N)=O)NC(=O)[C@H](CCCCN)NC(=O)[C@H](CCCCN)NC(=O)[C@H](CC(=O)O)NC(=O)[C@H](CCCNC(=N)N)NC(=O)[C@H](CC(C)C)NC(=O)[C@H](CCC(=O)O)NC(=O)[C@@H](NC(=O)[C@@H](NC(=O)[C@H](CCSC)NC(=O)[C@H](CC(=O)N[C@@H]1OC(CO)[C@@H](O[C@@H]2OC(CO)[C@@H](O)C(O)C2NC(C)=O)C(O)C1NC(C)=O)NC(=O)[C@H](Cc1ccccc1)NC(=O)[C@H](CO)NC(=O)[C@H](CS)NC(=O)[C@H](CC(=O)N[C@@H]1OC(CO)[C@@H](O[C@@H]2OC(CO)[C@@H](O)C(O)C2NC(C)=O)C(O)C1NC(C)=O)NC(=O)[C@H](CCCNC(N)N)NC(=O)[C@@H](NC(=O)[C@H](CCC(=O)O)NC(=O)[C@H](CC(=O)O)NC(=O)[C@@H](NC(=O)[C@@H](NC(C)=O)C(C)CC)C(C)O)C(C)C)C(C)O)C(C)O)C(C)C)C(C)CC)C(C)C)C(N)=O (stereo partly drawn) [GlcNAc2 V1V2] (Ac-[Ile(3ξ)][Thr(3ξ)]DEV[Orn(CH(NH2)2)]D(X1)CSFD(X1)M[Thr(3ξ)][Thr(3ξ)]ELRDKKQKVHALFYKLD[Ile(3ξ)]VP[Ile(3ξ)]-NH2)
BnAb PG9; Example 1, peptide injected over mAb captured on anti-human Fc, BIAcore 3000
  SPR binding to PG9: bound weakly
BnAb PG9; Example 5, peptides 200 μg/mL, glycans 25 μg/mL over captured PG9, listed as 3
  SPR binding to PG9: did not bind
BnAb PG9; Example 5, peptides 200 μg/mL, glycans 25 μg/mL over captured PG9, listed as V1V2 GlcNAc2
  SPR binding to PG9: minimal to no binding
BnAb PG9; [4]
  SPR binding to PG9: no binding
BnAb CH01; Example 1, peptide injected over captured mAb
  SPR binding to CH01: bound weakly
BnAb CH01; [4]
  SPR binding to CH01: no binding
V2 mAb CH58
  SPR binding to CH58: retained
V2 mAb CH59
  SPR binding to CH59: bound
PG9 UCA; Example 1
  SPR binding to PG9 UA: no binding
PG9 UCA; Example 6
  SPR binding to PG9 UCA: neither UCAs bound
CH01 UCA; Example 1
  SPR binding to CH01 UA: slow association indicating weak affinity interaction
CH01 UCA; Example 6
  SPR binding to CH01 UCA: neither UCAs bound
CH58 UCA
  SPR binding to CH58 UA: no binding
[1]
  β-strand (CD spectra deconvolution, K2D3): 17%

## CH01 (antibody)
[2]
  Kd: 32.1 nM
  koff: 0.00032 s⁻¹
  kon: 9970 M⁻¹ s⁻¹
[3]
  Kd: 45.5 nM
  koff: 0.000302 s⁻¹
  kon: 6640 M⁻¹ s⁻¹

Reference: patent US20150283227A1, “SYNTHETIC ENV PROTEINS” (priority 2012, published 2015)
